# Entries after “also recorded” stand apart in the source; their conditions may differ.
# Assays:
# Bacillus subtilis = assay: ProTOX (Bs) antibacterial bioassay; format: cell-based
# Text: ProTOX, (alternatively referred to herein as Bs) is an antibacterial bioassay, broadly applicable to most aerobic and anaerobic bacteria. The bioassay features a solid phase agar base into which the test compound has been incorporated together with a chromogen. As the bacteria multiply in the well, the chromogen is metabolised from blue in a two-step process to a colourless compound. Compounds with potent bactericidal activity inhibit bacterial metabolism of the chromogen while bacteriostatic compounds induce limited metabolism as indicated by an intermediate pink colour. ProTOX is broadly applicable to a range of gram-positive and gram-negative bacteria under aerobic and microaerophilic conditions. ProTOX assays were carried out using Bacillus subtilis.
# Briefly, in ProTOX, the bacteria (24 hour broth) were applied to the surface of an agar matrix containing the test sample and allowed to grow for 48 hours. The assay was monitored at 24 and 48 hours and the active wells noted. Known antibiotics yield consistent colour transitions which are concentration and time dependent. These patterns provide an important guide to the early recognition of interesting characteristics.
# Trichophyton rubrum = assay: MycoTOX (Tr) antifungal bioassay; format: cell-based
# Procedure: MycoTOX (alternatively referred to herein as Tr) is a non-chromogenic bioassay used to detect activity against filamentous fungal pathogens of plants and animals. The bioassay features a solid phase agar base into which the test compound has been incorporated. As the growth patterns of filamentous fungi are readily apparent on the agar surface the extent of mycelial growth, sporulation (if relevant to the species under investigation) and colour changes with maturation are measured.
# MycoTOX, involves a fungus (spore suspension or mycelial fragments) being applied to the surface of an agar matrix containing the test chemical and allowed to grow for a period of up to a week (depending on species). The assay is monitored at two discrete times to identify key development phases in the life cycle (for example mycelial growth and extent of sporulation) and the active wells noted. The monitoring times are dependent on the fungal species under investigation.
# The MycoTOX assays were carried out using Trichophyton rubrum. The MycoTOX test is alternatively referred to as Tr to indicate the use of Trichophyton rubrum.
# Human melanoma SKMel-5 = assay: Growth inhibition of cultured cells; format: cell-based
# Procedure: (§1) Briefly, a range of tumour cells including mouse melanoma, human melanoma, mouse squamous cell carcinoma, human breast, human colon, human leukemia and human lung and normal human cells including normal human fibroblasts were seeded at 2-5,000 per microtitre well (96-well plate) in 10% FCS-RPMI 1640 culture medium, treated, and allowed to grow until the controls were nearly confluent (5-6 days). The wells were then washed twice with PBS, fix with ethanol for a minimum of 5 minutes and washed with water. SRB solution (50 μL of 0.4% in 1% acetic acid) was added and left at room temperature for a minimum of 15 minutes. The plate was washed rapidly with tap water and then twice with 1% acetic acid. After addition of 100 μL/well of 10 mM Tris base (unbuffered, pH>9), plates were left for a minimum of 5 minutes, then the absorbance was read at 564 nm on the ELISA reader, with a 3 second prior shaking. After subtraction of a blank (wells with no cells, absorbance typically about 0.04), growth inhibition was calculated as % of the untreated control and plotted against dose.
# (§2) Briefly, a suspension of a range of tumour cells including mouse melanoma, human melanoma, mouse squamous cell carcinoma, human breast, human colon, human leukemia and human lung and normal human cells including normal human fibroblasts were seeded into round-bottom microtitre plates in 10% FCS-RPMI 1640 culture medium, treated and allowed to grow for 5-6 days. To measure cell growth, 20 μL of a combined MTS/PMS solution (Promega Cell ProliferationAssay Kit Cat #G5430) was added to each well of the 96 well assay plate. After 1-4 hours the plates were placed in the ELISA plate reader and the absorbance read at 490 nm. After subtraction of a blank (wells with no cells, absorbance typically about 0.4), growth inhibition was calculated as % of the untreated control and plotted against dose.
# [1] = test system: Mouse squamous cell carcinoma K-2; assay: Growth inhibition of cultured cells; format: cell-based
# Procedure: as §1, §2
# mouse melanoma B16 = assay: Growth inhibition of cultured cells; format: cell-based
# Procedure: as §1, §2
# MM96L cell line = assay: Changes in morphology of cultured cells; format: cell-based, human
# HT-29 colon tumour cells = assay: Cell scattering of cultured cells; format: cell-based, human
# Text: In addition, scattering of MCF-7 and HT-29 colon tumour cells was observed, typical of PKC activators. […] Additionally, given their similarity in structure, EBI-47, EBI-59 and EBI-61 are also considered to be protein kinase C activators.
# LK-2 mouse SCC = assay: Intralesional injection of LK-2 SCC tumours in mice; format: in vivo
# Procedure: Squamous Cell Carcinoma (SCC) tumours were established by the same method as for topical treatment but were allowed to grow for 15 days before drug treatment. 7 μg EBI-46 in 20 μL, saline was injected into each of 3 sides of the tumour. Tumour size was measured with calipers at appropriate intervals.
# Animal experiments were conducted under Queensland Institute of Medical Research (QIMR) Animal Ethics Committee approvals. The B16 mouse melanoma model was obtained by injecting 0.5 million B16 mouse melanoma cells subcutaneously into each of the 2 flanks of a male C57BL/6 mouse. The human tumour xenografts were obtained by injecting 2 million of the respective tumour cell line into each of 4 sites on the flanks of male nude mice (BALB/c background). EBI-46 was applied: (a) topically by dilution of a concentrated solution in acetone into an isopropanol gel, once a day for 3 days; (b) intralesionally by injection into the tumour of drug dissolved in 25% propylene glycol-0.1 M saline, (c) systemically by injection intraperitoneally in 25% propylene glycol in 0.1 M saline. Tumour size was measured with electronic callipers in mm and converted to volume (cubic mm) using the formula: Tumour volume=length×breadth×breadth/2. Results
# A pilot study was conducted on 6 mm×6 mm LK-2 tumours established in nude mice. Approximately 50 μL of a solution of EB548 fractions (approximately 20 μg EBI-46 in the EB548-35 fraction) in saline containing 20% acetone were injected in 3 sites around the periphery of each lesion. This was only done once.
# With PEG 400 delivery, 10 μg EBI-46 in 25 μL solution was injected (29 gauge) with a 0.5 mL insulin needle into a 7 mm×7 mm tumour, highly visible on the left flank of a nude mouse.
# Solubility tests = format: physicochemical
# Text: It requires a small amount of such solvents to form aqueous solutions. […] Higher solubilities may well be achieveable.
compound,measurement,setting,value
"C/C=C(\C)C(=O)OC1C(C)C2(O)C(C3OC3(CO)C(O)C3(O)C(=O)C(C)=CC32)C2C(C)(C)C12OC(=O)C(C)CC (stereo not drawn) [EBI-46, 12-tigloyl-13-(2-methylbutanoyl)-6,7-epoxy-4,5,9,12,13,20-hexahydroxy-1-tiglian-3-one]",Bs Titre,Bacillus subtilis,1
same,Bs LD99,"Bacillus subtilis; Table 6a, last well with activity, real value may be lower",50 pg/mL
same,Tr Titre,Trichophyton rubrum,0
same,Concentration of EBI-46 at which growth inhibition was observed,Human melanoma SKMel-5,<100 ng/mL
same,Concentration of EBI-46 at which growth inhibition was observed,[1],<100 ng/mL
same,Concentration of EBI-46 at which growth inhibition was observed,mouse melanoma B16,=/<2 μg/mL
same,change in morphology of MM96L cells,MM96L cell line,characteristic change to bipolar morphology; also recorded: extreme bipolar morphology
same,scattering of HT-29 colon tumour cells,HT-29 colon tumour cells,scattering
same,tumour at 16 hours,"LK-2 mouse SCC; 10 μg in 25 μL PEG 400 containing 10% ethanol, 7 mm × 7 mm tumour",tumour lump had largely gone
same,time mouse remained tumour-free,"LK-2 mouse SCC; 10 μg in PEG 400 containing 10% ethanol, single injection",over 9 months
same,systemic toxicity or lung metastases on post mortem,LK-2 mouse SCC; intralesional 21 ug,There were no signs of
same,tumour size,"LK-2 mouse SCC; intralesional 21 ug (3 × 7 ug), 15-day established tumours",reduction of tumour size.
same,solubility,Solubility tests; 5 μg/mL in 99.9% water,100%
same,solubility,Solubility tests; 50 μg/mL in 99% water,100%
same,solubility,Solubility tests; 450 μg/mL in 90% water,100%
same,solubility in vehicle,"Solubility tests; 25% propylene glycol-saline, 250 μg/mL",no sign of insolubility
same,solubility in vehicle,Solubility tests; PEG 400 containing 10% ethanol,freely soluble
same,solubility in organic solvents,"Solubility tests; acetone, alcohols and PEG 400",highly soluble
